Biological target: T1, integrins haα4 and β1 (VLA-4) expressed on CHO cells (Homo sapiens, UniProt P05556+P13612)
T1 construct: expressed in transfected cells; host or cells: CHO cells
Assay: In vitro Evaluation Test (1): binding of Eu3+-hVCAM-1 D1D7-IgG to CHO cells expressing integrins α4 and β1
Details: inhibition of Eu3+-hVCAM-1 D1D7-IgG binding to CHO cells expressing α4β1; Ki calculated from IC50
Procedure: CHO cells forcedly expressed by the transduction of integrins haα4 and β1 were seeded in a Coster 3599 plate (3×10^4 cells/100 μl/well) and they were cultured for 2 days. After the medium was washed with buffer A* twice, 50 μl/well of Eu^3+-hVCAM-1 D1D7-IgG diluted to […] with an assay buffer ** was added. To the resulting well was added 50 μl/well of a test compound diluted with 2% DMS0-assay buffer (in the presence or absence of 6% human serum albumin) (to a well subjected to Scatchard analysis was added a solution diluted in another manner). After stirring for 5 minutes on a plate mixer, the plate was allowed to stand at room temperature for 1 hour. Then, the plate was washed four times with the buffer A and added with 100 μl/well of an enhancement reagent (DELFIA). The plate was shaken for 5 minutes on a plate mixer, followed by measurement of fluorescence intensity by a time-resolved fluorometer (DELFIA Wallac). From the binding ratio available by the following calculation formula: ((FT−FNS)−(FI−FNS))/(FT−FNS)×100, the IC50 (concentration inhibiting 50% of binding of CHO cells with hVCAM-1 D1D7-IgG) of the test compound was determined. In the above formula, FT means the fluorescence intensity of the well free of the test compound, FNS means the fluorescence intensity of the well free of the test compound and anti-hα4 antibody (SG/73), and FI means the fluorescence intensity of the well containing the test compound. The Kd indicating the binding strength and Bmax (maximum binding) were estimated within a range of 0.06 to 20 nM in accordance with the Scatchard analysis method.
The value Ki was calculated based on:
[formula] ((L) means a ligand concentration). (* buffer A: 25 mM HEPES (pH 7.5), 150 mM NaCl, 1 mM Ca^2+, 1 MM Mg^2+, 4 mM Mn^2+; ** assay buffer: 25 mM HEPES (pH 7.5), 150 mM NaCl, 1 mM Ca^2+, 1 mM Mg^2+, 4 mM Mn^2+, 0.1% BSA, 20 μM DTPA, with/without 6% ALBUMIN, HUMAN SERUM (C/N A-1653, SIGMA)) In vitro Evaluation Test (2)

T1 sequence (P13612 34-1032): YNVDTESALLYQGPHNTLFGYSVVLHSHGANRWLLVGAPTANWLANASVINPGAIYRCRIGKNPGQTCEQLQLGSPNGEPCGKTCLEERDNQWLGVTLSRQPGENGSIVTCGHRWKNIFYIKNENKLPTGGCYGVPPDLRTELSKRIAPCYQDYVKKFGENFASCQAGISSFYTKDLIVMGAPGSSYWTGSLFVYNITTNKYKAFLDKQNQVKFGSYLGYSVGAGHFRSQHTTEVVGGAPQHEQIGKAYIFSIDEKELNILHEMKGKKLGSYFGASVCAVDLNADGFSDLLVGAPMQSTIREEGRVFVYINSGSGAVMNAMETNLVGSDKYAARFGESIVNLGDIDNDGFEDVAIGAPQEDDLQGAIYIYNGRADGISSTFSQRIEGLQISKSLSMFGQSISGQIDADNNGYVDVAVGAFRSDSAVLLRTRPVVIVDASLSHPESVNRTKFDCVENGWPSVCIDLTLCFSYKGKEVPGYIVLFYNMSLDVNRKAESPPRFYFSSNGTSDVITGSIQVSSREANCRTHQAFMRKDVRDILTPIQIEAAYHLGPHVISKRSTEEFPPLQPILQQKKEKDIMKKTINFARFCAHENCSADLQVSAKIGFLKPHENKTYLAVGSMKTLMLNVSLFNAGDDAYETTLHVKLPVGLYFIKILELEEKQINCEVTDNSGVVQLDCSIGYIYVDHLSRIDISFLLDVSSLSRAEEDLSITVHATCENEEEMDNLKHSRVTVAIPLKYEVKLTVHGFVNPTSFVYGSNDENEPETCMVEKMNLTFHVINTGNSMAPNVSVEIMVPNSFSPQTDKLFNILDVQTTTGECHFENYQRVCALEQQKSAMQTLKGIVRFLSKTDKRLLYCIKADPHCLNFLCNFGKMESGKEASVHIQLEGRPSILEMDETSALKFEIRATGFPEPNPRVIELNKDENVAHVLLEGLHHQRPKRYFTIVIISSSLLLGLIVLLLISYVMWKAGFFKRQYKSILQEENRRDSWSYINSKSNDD
T1 sequence (P05556 21-798): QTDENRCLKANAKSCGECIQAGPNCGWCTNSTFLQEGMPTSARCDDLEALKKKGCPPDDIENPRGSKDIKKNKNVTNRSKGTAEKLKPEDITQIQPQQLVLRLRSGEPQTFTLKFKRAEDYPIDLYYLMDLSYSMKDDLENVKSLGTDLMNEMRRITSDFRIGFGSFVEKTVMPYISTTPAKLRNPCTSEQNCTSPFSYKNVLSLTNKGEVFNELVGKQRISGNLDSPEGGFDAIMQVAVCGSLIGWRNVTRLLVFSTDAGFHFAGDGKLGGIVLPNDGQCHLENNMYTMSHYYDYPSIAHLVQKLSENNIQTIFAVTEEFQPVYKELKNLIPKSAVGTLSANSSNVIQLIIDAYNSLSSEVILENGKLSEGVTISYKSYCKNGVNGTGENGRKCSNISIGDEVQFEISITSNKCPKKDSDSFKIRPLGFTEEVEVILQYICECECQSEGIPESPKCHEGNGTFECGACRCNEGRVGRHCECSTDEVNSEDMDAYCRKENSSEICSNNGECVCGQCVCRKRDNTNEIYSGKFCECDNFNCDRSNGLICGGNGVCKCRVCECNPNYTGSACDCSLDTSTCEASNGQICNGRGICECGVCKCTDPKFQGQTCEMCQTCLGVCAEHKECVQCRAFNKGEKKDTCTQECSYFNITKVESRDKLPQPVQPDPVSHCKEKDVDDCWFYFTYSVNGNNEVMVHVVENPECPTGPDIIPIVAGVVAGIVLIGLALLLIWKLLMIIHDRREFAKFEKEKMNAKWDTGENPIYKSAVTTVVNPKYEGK

SMILES | Ki [nM]
Cc1ccccc1Nc1nc2ccc(CC(=O)N3CC=C[C@H]3COc3ccc(C(=O)O)cc3)cc2o1 [Example 151, 4-(3,4-Dehydro-1-((2-(2-methylphenylamino)-6-benzoxazolyl)acetyl)-(2S)-pyrrolidinylmethoxy)benzoic acid] | 37
O=C(Cc1ccc2nc(-c3nccc4ccccc34)oc2c1)N1C[C@@H](F)C[C@H]1CO[C@H]1CC[C@H](C(=O)O)CC1 [Example 102, trans-4-(1-(2-(1-Isoquinolinyl)-6-benzoxazolylacetyl)-(4S)-fluoro-(2S)-pyrrolidinylmethoxy)cyclohexanecarboxylic acid] | 47
Cn1cc(C(=O)Nc2cc(F)c(CC(=O)N3C[C@@H](F)C[C@H]3CO[C@H]3CC[C@H](C(=O)O)CC3)cc2Cl)c2c(F)cccc21 [Example 75, trans-4-(1-((5-Chloro-2-fluoro-4-((4-fluoro-1-methyl-3-indolylcarbonyl)amino)phenyl)acetyl)-(4S)-fluoro-(2S)-pyrrolidinylmethoxy)cyclohexanecarboxylic acid] | 21
Cn1cc(C(=O)Nc2cc(F)c(CC(=O)N3C[C@@H](F)C[C@H]3CO[C@H]3CC[C@H](C(=O)O)CC3)cc2Cl)c2ccc(F)cc21 [Example 73, trans-4-(1-((5-Chloro-2-fluoro-4-((6-fluoro-1-methyl-3-indolylcarbonyl)amino)phenyl)acetyl)-(4S)-fluoro-(2S)-pyrrolidinylmethoxy)cyclohexanecarboxylic acid] | 51
CC(=O)N(C)[C@H]1C[C@@H](CO[C@H]2CC[C@H](C(=O)O)CC2)N(C(=O)Cc2cc(Cl)c(NC(=O)c3cn(C)c4ccccc34)cc2F)C1 [Example 142, trans-4-(1-((5-Chloro-2-fluoro-4-(1-methyl-3-indolylcarbonylamino)phenyl)acetyl)-(4S)-(N-methylacetamido)-(2S)-pyrrolidinylmethoxy)-1-cyclohexanecarboxylic acid] | 18
O=C(Cc1ccc(Nc2nc3cccc(F)c3o2)c(Cl)c1)N1C[C@@H](F)C[C@H]1CO[C@H]1CC[C@H](C(=O)O)CC1 [Example 53, trans-4-(1-(3-Chloro-4-(2-(7-fluorobenzoxazolyl))aminophenylacetyl)-(4S)-fluoro-(2S)-pyrrolidinylmethoxy)cyclohexanecarboxylic acid] | 32
COc1cc(CC(=O)N2C[C@@H](F)C[C@H]2CO[C@H]2CC[C@H](C(=O)O)CC2)ccc1NC(=O)c1cc2ccccc2[nH]1 [Example 78, trans-4-(1-((4-((2-Indolylcarbonyl)amino)-3-methoxyphenyl)acetyl)-(4S)-fluoro-(2S)-pyrrolidinylmethoxy)cyclohexanecarboxylic acid] | 14
COC[C@@H]1CC[C@@H](CO[C@H]2CC[C@H](C(=O)O)CC2)N1C(=O)Cc1cc(Cl)c(NC(=O)c2nn(C)c3ccccc23)cc1F [Example 168, trans-4-(1-((5-Chloro-2-fluoro-4-((1-methyl-3-indazolyl)carbonyl)aminophenyl)acetyl)-(5S)-methoxymethyl-(2S)-pyrrolidinylmethoxy)cyclohexanecarboxylic acid] | 59
COC[C@@H]1C[C@@H](Oc2ccc(C(=O)O)cc2)CN1C(=O)Cc1ccc2nc(Nc3cc(F)ccc3C)oc2c1F [Example 159, 4-(1-((2-(5-Fluoro-2-methylphenylamino)-7-fluoro-6-benzoxazolyl)acetyl)-(2S)-methoxymethyl-(4R)-pyrrolidinyloxy)benzoic acid] | 47
Cn1cc(C(=O)Nc2ccc(CC(=O)N3C[C@@H](F)C[C@H]3CO[C@H]3CC[C@H](C(=O)O)CC3)nc2Cl)c2ccccc21 [Example 69, trans-4-(1-(2-Chloro-3-((1-methyl-3-indolylcarbonyl)amino)-6-pyridyl)acetyl)-(4S)-fluoro-(2S)-cyclohexanecarboxylic acid] | 34

Now those with a lower Ki, led by results:

Ki [nM] | SMILES
13 | Cc1cc(CC(=O)N2C[C@@H](F)C[C@H]2CO[C@H]2CC[C@H](C(=O)O)CC2)ccc1Nc1nc2ccccc2o1 [Example 50, trans-4-(1-(4-(2-Benzoxazolyl)amino-3-methylphenylacetyl)-(4S)-fluoro-(2S)-pyrrolidinylmethoxy)cyclohexanecarboxylic acid]
10 | Cn1cc(C(=O)Nc2ccc(CC(=O)N3C[C@@H](F)C[C@H]3COc3ccc(C(=O)O)cn3)cc2Cl)c2ccccc21 [Example 150, 6-(1-(3-Chloro-4-(1-methyl-3-indolyl)carbonylaminophenylacetyl)-(4S)-fluoro-(2S)-pyrrolidinylmethoxy)nicotinic acid]
9.7 | CS[C@H]1C[C@@H](CO[C@H]2CC[C@H](C(=O)O)CC2)N(C(=O)Cc2cc(Cl)c(NC(=O)c3nn(C)c4ccccc34)cc2F)C1 [Example 127, trans-4-(1-((5-Chloro2-fluoro-4-((1-methyl-3-indazolylcarbonyl)amino)phenyl)acetyl)-(4S)-methylthio-(2S)-pyrrolidinylmethoxy)cyclohexanecarboxylic acid]
7.3 | O=C(Cc1ccc(Nc2nc3ccc(F)cc3s2)c(Cl)c1)N1C[C@@H](F)C[C@H]1CO[C@H]1CC[C@H](C(=O)O)CC1 [Example 57, trans-4-(1-(3-Chloro-4-(6-fluoro-2-benzothiazolyl)aminophenylacetyl)-(4S)-fluoro-(2S)-pyrrolidinylmethoxy)cyclohexanecarboxylic acid]
7.2 | O=C(Cc1ccc(Nc2nc3ccc(Cl)cc3s2)c(Cl)c1)N1C[C@@H](F)C[C@H]1CO[C@H]1CC[C@H](C(=O)O)CC1 [Example 59, trans-4-(1-(4-(6-Chloro-2-benzothiazolyl)amino-3-chlorophenylacetyl)-(4S)-fluoro-(2S)-pyrrolidinylmethoxy)cyclohexanecarboxylic acid]
7.1 | Cc1ccccc1Nc1nc2ccc(CC(=O)N3C[C@@H](N(C)C)C[C@H]3COc3ccc(C(=O)O)cc3)cc2o1 [Example 7, 4-((4S)-Dimethylamino-1-(2-(2-methylphenylamino)-6-benzoxazolylacetyl)-(2S)-pyrrolidinylmethoxy)benzoic acid]
7 | Cc1ccc(F)cc1Nc1nc2ccc(CC(=O)N3C[C@@H](F)C[C@H]3C(=O)N[C@H]3CC[C@H](C(=O)O)CC3)c(F)c2o1 [Example 110, trans-4-(((4S)-Fluoro-1-(2-(5-fluoro-2-methylphenylamino)-7-fluoro-6-benzoxazolylacetyl)-(2S)-pyrrolidinyl)carbonylamino)cyclohexanecarboxylic acid]
6.3 | O=C(Cc1ccc(Nc2nc3c(Cl)cccc3s2)c(Cl)c1)N1C[C@@H](F)C[C@H]1CO[C@H]1CC[C@H](C(=O)O)CC1 [Example 60, trans-4-(1-(4-(4-Chloro-2-benzothiazolyl)amino-3-chlorophenylacetyl)-(4S)-fluoro-(2S)-pyrrolidinylmethoxy)cyclohexanecarboxylic acid]
2.1 | O=C(Cc1ccc(Nc2nc3ccccc3s2)c(Cl)c1)N1C[C@@H](F)C[C@H]1CO[C@H]1CC[C@H](C(=O)O)CC1 [Example 56, trans-4-(1-(4-(2-Benzothiazolyl)amino-3-chlorophenylacetyl)-(4S)-fluoro-(2S)-pyrrolidinylmethoxy)cyclohexanecarboxylic acid]
1.4 | Cc1ccccc1Nc1nc2ccc(CC(=O)N3C[C@@H](S(=O)(=O)c4ccccc4)C[C@H]3CO[C@H]3CC[C@H](C(=O)O)CC3)cc2o1 [Example 124, trans-4-(1-((2-(2-Methylphenylamino)-6-benzoxazolyl)acetyl)-(4S)-phenylsulfonyl-(2S)-pyrrolidinylmethoxy)cyclohexanecarboxylic acid]
